This assay deals with neutrophils. Put plainly: Neutrophil calcium flux assay (5-OXO-ETE-stimulated, Indo-1 fluorescence). It counts as cell-based. The note with it: 5-OXO-ETE-stimulated calcium flux. The method, boiled down: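 Indo-1-loaded neutrophils (5×10^6 cells/ml, 30 min at 37 °C) in HBSS with Ca/Mg and HEPES, pre-incubated 5 min with antagonist or buffer. Stimulated with 5-OXO-ETE added at 200 nM (4× stock); fluorescence (ex 331/em 410 nm) read every 5 s for 30 cycles, expressed as net fluorescence.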
Background: Calcium assays in cells follow changes in intracellular calcium, usually with a dye or a luminescent sensor.

In general, IC50 refers to the concentration at which inhibition is half-maximal.

For the molecule `CC(C)CCCCc1c(C(=O)C[C@H](C)CC(=O)O)c2cc(Cl)ccc2n1C` [Compound I-70], the IC50 (Neutrophil) lay in the range of 100 to 300 nM.

As to `CC(CC(=O)O)CC(=O)c1c(CCCCOCc2cncc(C#N)c2)n(C)c2ncc(Cl)cc12` (stereo not drawn) [Compound I-445], the IC50 (Neutrophil) was more than 300 nM.

Regarding `C[C@H](CC(=O)N[C@@H](Cc1ccccc1)C(=O)O)CC(=O)c1c(CCCCOCc2ccccc2)n(C)c2ncc(C#N)cc12` [Compound I-467], the IC50 (Neutrophil) is more than 300 nM.

`C[C@H](CC(=O)N[C@@H](CCC(N)=O)C(=O)O)CC(=O)c1c(CCCCOCc2ccccc2)n(C)c2ncc(C#N)cc12` [Compound I-460]: the 50% inhibitory concentration (IC50) (Neutrophil) was more than 300 nM.

As to `C[C@@H](CC(=O)O)CC(=O)c1c(CCCCOCc2cccc(C#N)c2)n(C)c2cnc(Cl)cc12` [Compound I-405], under “Neutrophil”, the half-maximal inhibitory concentration (IC50) was more than 300 nM.

`C[C@H](CC(=O)O)CC(=O)c1c(CCCCCCC#CC(C)(C)C)n(C)c2ccc(Cl)cc12` [Compound I-112]: where the note is “Neutrophil”, the IC50 is less than 100 nM.

In the case of `C[C@@H](CC(=O)O)CC(=O)c1c(CCCCOCc2cccc(C#N)c2)n(C)c2ncc(C#N)cc12` [Compound I-384], under “Neutrophil”, the IC50 is more than 300 nM.

Take `CC(CC(=O)O)CC(=O)c1c(CCOCCNc2cccc(F)c2)n(C)c2ncc(C#N)cc12` (stereo not drawn) [Compound I-296]: the IC50 (Neutrophil) fell in the range of 100 to 300 nM.

For `C[C@H](CC(=O)O)CC(=O)c1c(CCCCOCc2cccc(C#N)c2)n(C)c2ncc(F)cc12` [Compound I-416], the 50% inhibitory concentration (IC50) (Neutrophil) was in the range of 100 to 300 nM.

For `CC(CC(=O)O)CC(=O)c1c(CCCCO)n(C)c2ncc(C#N)cc12` (stereo not drawn) [Compound I-429], the IC50 (Neutrophil) was more than 300 nM.

On to `C[C@@H]1[C@@H](C(=O)O)CCN1C(=O)c1c(CCCCCCC#CC2CC(F)(F)C2)n(C)c2ncc(C#N)cc12` [Compound I-346], for which the IC50 (Neutrophil) is less than 100 nM.

For `CC(CN(C)C(=O)c1c(CCCCCCc2cccc(Cl)c2)n(C)c2ccc(Cl)cc12)C(=O)O` (stereo not drawn) [Compound I-243], the IC50 (Neutrophil) was more than 300 nM.

Turning to `Cn1c(CCCCCCC#CC2CC(F)(F)C2)c(C(=O)N2CC[C@H](C(=O)NCC(=O)O)C2)c2cc(C#N)cnc21` [Compound I-462], for the setting “Neutrophil”, the half-maximal inhibitory concentration (IC50) was more than 300 nM.

On to `CC(C)C#CCCCCCc1c(C(=O)C[C@H](C)CC(=O)O)c2cc(Cl)ccc2n1C` [Compound I-114], for which the IC50 (Neutrophil) is more than 300 nM.

Turning to `C[C@@H](CC(=O)O)CC(=O)c1c(CCCCCCc2cccc(Cl)c2)n(CCO)c2ncc(C#N)cc12` [Compound I-280], for the setting “Neutrophil”, the IC50 was more than 300 nM.

As for `C[C@@H](CC(=O)O)CC(=O)c1c(CCCCOCc2ccc(F)cc2)n(C)c2ncc(Cl)cc12` [Compound I-216], the IC50 (Neutrophil) is more than 300 nM.

As for `C[C@H](CC(=O)O)CC(=O)c1c(CCCCCCC#CC2COC2)n(C)c2ccc(Cl)cc12` [Compound I-332], for the setting “Neutrophil”, the IC50 is less than 100 nM.

`CC[C@@H](CC(=O)O)CC(=O)c1c(CCCCOCc2ccccc2)n(C)c2ncc(C#N)cc12` [Compound I-439]: the 50% inhibitory concentration (IC50) (Neutrophil) was more than 300 nM.

`CC(CC(=O)O)CC(=O)c1c(CCCCCC(O)c2cccc(C#N)c2)n(C)c2ncc(Cl)cc12` (single isomer, unassigned) [Compound I-309]: the IC50 is more than 300 nM.

With `CC(CC(=O)O)CC(=O)c1c(CCCCC#Cc2ccc(F)nc2)n(C)c2ncc(Cl)cc12` (stereo not drawn) [Compound I-227], where the note is “Neutrophil”, the IC50 was more than 300 nM.

On to `CC(CC(=O)O)CC(=O)c1c(CCCCCCc2cccc(Cl)c2)n(C[C@H](O)CO)c2ncc(C#N)cc12` (stereo partly drawn) [Compound I-282], for which the IC50 (Neutrophil) was more than 300 nM.

In the case of `COC(=O)[C@H]1CCN(C(=O)c2c(CCCCCCC#CC3CC(F)(F)C3)n(C)c3ncc(C#N)cc23)[C@@H]1C` [Compound I-351], under “Neutrophil”, the IC50 is more than 300 nM.

Take `C[C@H](CC(=O)O)CC(=O)c1c(COCCCCC#CC2CC(F)(F)C2)n(C)c2ccc(Cl)cc12` [Compound I-327]: the IC50 (Neutrophil) is less than 100 nM.

With `C[C@H](CC(=O)O)CC(=O)c1c(CCCCC[C@@H](O)c2cccc(Cl)c2)n(C)c2ncc(Cl)cc12` [Compound I-107], the IC50 (Neutrophil) was less than 100 nM.

On to `C[C@H](CC(N)=O)CC(=O)c1c(CCCCOCc2cccc(Cl)c2)n(C)c2ncc(Cl)cc12` [Compound I-356], for which, for the setting “Neutrophil”, the IC50 is more than 300 nM.

With `Cn1c(CCCCCCc2cccc(Cl)c2)c(C(=O)N2CCC[C@H]2CC(=O)O)c2cc(Cl)ccc21` [Compound I-121], the IC50 (Neutrophil) is more than 300 nM.

For `CC(CC(=O)O)CC(=O)c1c(CCCCCCC#CC2COC2)n(C)c2ccc(Cl)cc12` (stereo not drawn) [Compound I-321], the 50% inhibitory concentration (IC50) (Neutrophil) was less than 100 nM.

In the case of `CC(CC(=O)O)CC(=O)c1c(CCCCCC(O)c2cccc(C#N)c2)n(C)c2ncc(Cl)cc12` (single isomer, unassigned) [Compound I-308], the 50% inhibitory concentration (IC50) is less than 100 nM.

`C[C@@H](CC(=O)O)CC(=O)c1c(CCCCOCc2ccccc2)n(C)c2ncc(C#N)cc12` [Compound I-106]: the concentration for half-maximal inhibition (IC50) (Neutrophil) was more than 300 nM.

As to `C[C@@H](CC(=O)O)CC(=O)c1c(CCCCOCc2cc(Cl)cc(Cl)c2)n(C)c2ncc(C#N)cc12` [Compound I-386], for the setting “Neutrophil”, the IC50 was in the range of 100 to 300 nM.

As to `C[C@H](CC(=O)O)CC(=O)c1c(CCCCCCC#CC2CCC2)n(C)c2ccc(Cl)cc12` [Compound I-113], the half-inhibitory concentration (IC50) (Neutrophil) is more than 300 nM.

Regarding `COC(=O)NCCCCCc1c(C(=O)CC(C)CC(=O)O)c2cc(Cl)ccc2n1C` (stereo not drawn) [Compound I-134], the concentration for half-maximal inhibition (IC50) (Neutrophil) was more than 300 nM.

Consider `C[C@@H](CC(=O)O)CC(=O)c1c(CCCCOCc2cccc(Cl)c2)n(C)c2cnccc12` [Compound I-406], for which the half-inhibitory concentration (IC50) (Neutrophil) was more than 300 nM.

Consider `C[C@H](CC(=O)O)CC(=O)c1c(CCCCOCc2ccc(F)cc2)n(C)c2ncc(Cl)cc12` [Compound I-215], for which the IC50 (Neutrophil) was more than 300 nM.

On to `CC(CC(=O)O)CC(=O)c1c(CCOCCNc2ccc(F)cc2)n(C)c2ccc(Cl)cc12` (stereo not drawn) [Compound I-220], for which the IC50 (Neutrophil) is more than 300 nM.

As to `C[C@H](CC(=O)O)CC(=O)c1c(CCCCOCc2cccc(C#N)c2)n(C)c2ncc(Cl)cc12` [Compound I-212], where the note is “Neutrophil”, the IC50 is less than 100 nM.

Take `C[C@H](CC(=O)O)CC(=O)c1c(CCCCCCC#CC2CC(F)(F)C2)n(C)c2ncc(C#N)cc12` [Compound I-328]: for the setting “Neutrophil”, the IC50 was less than 100 nM.

Take `Cn1c(CCCCCCc2cccc(Cl)c2)c(C(=O)N2CC[C@@H](C(=O)O)C2)c2cc(Cl)ccc21` [Compound I-120]: the half-inhibitory concentration (IC50) (Neutrophil) lay in the range of 100 to 300 nM.

For `C[C@@H](CC(=O)O)CC(=O)c1c(CCCCOCc2cccc(Cl)c2)n(C)c2cnc(Cl)cc12` [Compound I-411], the IC50 (Neutrophil) was more than 300 nM.

Take `C[C@H](CC(=O)O)CC(=O)c1c(CCCCOCc2cccc(F)c2)n(C)c2ncc(C#N)cc12` [Compound I-293]: the IC50 (Neutrophil) was less than 100 nM.

Turning to `C[C@H](CC(=O)O)CC(=O)c1c(CCCCOCc2cccc(C#N)c2)n(C)c2ccncc12` [Compound I-396], the concentration for half-maximal inhibition (IC50) (Neutrophil) is less than 100 nM.

For `Cn1c(CCCCCCC#CC2CC(F)(F)C2)c(C(=O)N2CC[C@H](C(=O)NCCS(=O)(=O)O)C2)c2cc(C#N)cnc21` [Compound I-464], under “Neutrophil”, the IC50 was more than 300 nM.

Take `CC(CC(=O)O)CC(=O)c1c(CCCCOCc2cc(F)cc(F)c2)n(C)c2ncc(C#N)cc12` (stereo not drawn) [Compound I-387]: the IC50 (Neutrophil) was in the range of 100 to 300 nM.

In the case of `CC(CC(=O)O)CC(=O)c1c(CCOCCNc2cccc(Cl)c2)n(C)c2ncc(C#N)cc12` (stereo not drawn) [Compound I-288], the IC50 (Neutrophil) was in the range of 100 to 300 nM.

For the molecule `Cn1c(CCCCCCC#CC2CC(F)(F)C2)c(C(=O)N2CC[C@H](C(=O)N[C@@H](CCC(N)=O)C(=O)O)C2)c2cc(C#N)cnc21` [Compound I-463], the IC50 (Neutrophil) was more than 300 nM.

Take `CC(CC(=O)O)CC(=O)c1c(CCCCCOCc2cccc(Cl)c2)[nH]c2ccc(C#N)cc12` (stereo not drawn) [Compound I-443]: the IC50 (Neutrophil) was in the range of 100 to 300 nM.

Regarding `CC(CC(=O)O)CC(=O)c1c(C[C@H]2CC[C@H](OCc3cccc(Cl)c3)CC2)n(C)c2ncc(C#N)cc12` (stereo partly drawn) [Compound I-402], where the note is “Neutrophil”, the half-maximal inhibitory concentration (IC50) was in the range of 100 to 300 nM.

With `Cn1nc(CCCCOCc2cccc(Cl)c2)c(C(=O)N2CC[C@H](C(=O)O)C2)c1-c1cccc(Cl)c1` [Compound I-192], the half-inhibitory concentration (IC50) (Neutrophil) was more than 300 nM.

Turning to `Cn1c(CCCCCC(O)c2cccc(Cl)c2)c(C(=O)N2CC[C@H](c3nnn[nH]3)C2)c2cc(C#N)cnc21` (stereo partly drawn) [Compound I-225], the IC50 (Neutrophil) lay in the range of 100 to 300 nM.

Take `C[C@H](CC(=O)O)CC(=O)c1c(CCCCOCc2cccc(Cl)c2)[nH]c2ccc(C#N)cc12` [Compound I-382]: the IC50 (Neutrophil) is less than 100 nM.

Take `COc1cccc(COCCCCc2c(C(=O)CC(C)CC(=O)O)c3cc(Cl)cnc3n2C)c1` (stereo not drawn) [Compound I-403]: the half-inhibitory concentration (IC50) (Neutrophil) is 100 to 300 nM.

Regarding `CC(CC(=O)O)CC(=O)c1c(CCCC[S+]([O-])Cc2ccccc2)n(C)c2ncc(C#N)cc12` (stereo not drawn) [Compound I-427], for the setting “Neutrophil”, the IC50 was more than 300 nM.

Turning to `C[C@H](CC(=O)O)CC(=O)c1c(CCCCCCc2cccc(Cl)c2)n(C)c2ncc(Cl)cc12` [Compound I-24], for the setting “Neutrophil”, the half-maximal inhibitory concentration (IC50) was more than 300 nM.

Take `CC(CC(=O)O)CC(=O)c1c(CCCCCC(O)c2cccc(C#N)c2)n(C)c2ncc(Cl)cc12` (single isomer, unassigned) [Compound I-307]: the half-maximal inhibitory concentration (IC50) is less than 100 nM.

Consider `COc1cccc(CCCCC#Cc2c(C(=O)CC(C)CC(=O)O)c3cc(C#N)cnc3n2C)c1` (stereo not drawn) [Compound I-419], for which, for the setting “Neutrophil”, the IC50 is more than 300 nM.

As for `CC(CC(=O)O)CC(=O)c1c(CCOCCNc2cccnc2)n(C)c2ncc(Cl)cc12` (stereo not drawn) [Compound I-139], the concentration for half-maximal inhibition (IC50) (Neutrophil) was more than 300 nM.

`C[C@H](CC(=O)O)CC(=O)c1c(CCCCCCc2cccc(Cl)c2)n(CCO)c2ncc(C#N)cc12` [Compound I-279]: the concentration for half-maximal inhibition (IC50) (Neutrophil) is less than 100 nM.

As to `CC(=O)Nc1cccc(COCCCCc2c(C(=O)CC(C)CC(=O)O)c3cc(C#N)cnc3n2C)c1` (stereo not drawn) [Compound I-298], the IC50 (Neutrophil) was in the range of 100 to 300 nM.

With `CC(CC(=O)O)CC(=O)c1c(CCCCOCc2cccc(Cl)c2)n(CCO)c2ncc(C#N)cc12` (stereo not drawn) [Compound I-377], the 50% inhibitory concentration (IC50) (Neutrophil) was more than 300 nM.

As to `Cn1ccc(C(=O)N2CC[C@H](C(=O)O)C2)c1CCCCOCc1cccc(Cl)c1` [Compound I-162], the IC50 (Neutrophil) was more than 300 nM.

For the molecule `Cn1c(CCCCOCc2ccccc2)c(C(=O)N2CC[C@H](C(=O)O)C2)c2cc(C#N)cnc21` [Compound I-178], the IC50 (Neutrophil) was more than 300 nM.

On to `Cn1c(CCCCOCc2ccccc2)c(C(=O)CC(CC(=O)O)C(F)(F)F)c2cc(C#N)cnc21` (stereo not drawn) [Compound I-440], for which the IC50 (Neutrophil) is more than 300 nM.

Turning to `C[C@@H](CC(=O)c1c(CCCCCCC#CC2CC(F)(F)C2)n(C)c2ccc(Cl)cc12)Cc1nnn[nH]1` [Compound I-352], for the setting “Neutrophil”, the half-inhibitory concentration (IC50) was less than 100 nM.

The values are drawn from US20250154145A1, “OXER1 ANTAGONISTS AND USES THEREOF” (Fairhaven Pharmaceuticals Ins., priority 2021, published 2025).
